Results reported in patent US12570639B2, “Tetrahydroquinoline derivative and medicinal use thereof” (Toray Industries, Inc., priority 2020, dated 2026).
Where a name gives a salt, the structure may show the parent alone.

Assays:
[1] = system: Human fibrosarcoma cells (HT-1080 cells); test: In vitro inhibitory action against ferroptosis (Erastin-induced cell death, Cell Counting Kit-8); type: cell-based; details: Erastin 3 μmol/L, 24 hours
[2] = system: MOG-induced experimental autoimmune encephalomyelitis mouse model; test: Activity assessment 3 in MOG-induced experimental autoimmune encephalomyelitis mouse model; type: in vivo, C57BL/6J mice; details: 10 mg/kg orally twice daily for 10 days starting 53 days after MOG35-55 inoculation; vs vehicle-dosing group (2.25)
Experimental: (§1) A PBS solution prepared to contain a synthetic partial peptide of MOG (MOG35-55; CSBio) at a concentration of 4 mg/mL was mixed with an equal volume of Freund's complete adjuvant, and a total of 0.1 mL (0.05 mL per flank) of the resulting MOG35-55 dosing solution was inoculated intradermally into the bilateral flanks of C57BL/6J mice (male, 10 weeks old, Charles River Laboratories Japan, Inc.). On the day of inoculation of the MOG35-55 dosing solution and on the second day after the inoculation, 200 μL of pertussis toxin (Sigma Co. LLC) prepared at a concentration of 1 μg/mL was further administered intraperitoneally to the mice.
(§2) The compound of Example 11, the compound of Example 32, and the compound of Example 36 were used as test compounds to assess the effect of the test compounds on increase of neurological score in the MOG-induced experimental autoimmune encephalomyelitis mouse model. The study was performed in the same manner as in Example 175, except that the start day for administrating a test compound, the scoring method, and the timing of determining the neurological score were changed from those in Example 175. Each test compound was administered orally at a dose of 30 mg/kg twice daily for a period of 15 days starting 50 days after the inoculation of the MOG35-55 dosing solution. In addition, the score was determined by the following criteria: 0, normal; 0.5, partial drooping tail; 1, full drooping tail or hind-limb weakness; 2, full drooping tail and hind-limb weakness; 3, hind-limb partial paralysis; 4, hind-limb complete paralysis; 5, fore- and hind-limb complete paralysis.
The compound of Example 144, the compound of Example 171, and the compound of Example 172 were used as test compounds to assess the effect of the test compounds on increase of neurological score in the MOG-induced experimental autoimmune encephalomyelitis mouse model. […]

[3] = In vitro radical scavenging action (DPPH method); details: 30 minutes at room temperature, maximum concentration 100 μmol/L
Experimental: Radical scavenging action was evaluated using the DPPH method in the compound of Comparative Example 1, which is a tetrahydroquinoxaline derivative, and in the tetrahydroquinoline derivative (I) or a pharmaceutically acceptable salt thereof. The DPPH method was performed using an antioxidant capacity measurement kit (Dojindo Laboratories).
A test compound was dissolved in DMSO, and the resulting solution was then mixed with an assay buffer and a DPPH solution, which are included in the kit, to a total volume of 200 μL to obtain a final concentration of 10% DMSO, and the reaction was allowed to proceed. Wells added with 100 μmol/L ferrostatin-1, a radical scavenger, were grouped as “control,” and wells added with not test compound were grouped as “background.” The test compound was serially diluted 3-fold starting from a maximum concentration of 100 μmol/L, and the diluted test compound (1.2, 3.7, 11.1, 33.3, or 100 μmol/L) was added and allowed to react at room temperature. Thirty minutes after the reaction, the absorbance at 517 nm was measured, and the average absorbance value was calculated (N=2). The radical scavenging action of the test compound (hereinafter referred to as radical scavenging rate, %) was calculated based on the equation 2 below. The EC50 value of the test compound was calculated from the radical scavenging rate. Radical scavenging rate (%)=[1−{(Average absorbance value at 517 nm measured when a test compound is added)−(Average absorbance value at 517 nm measured in the background)}/{(Average absorbance value at 517 nm measured in the control)−(Average absorbance value at 517 nm measured in the background)}]×100 Equation 2
A note “no detection of radical scavenging action (N.D.),” is given to compounds with a EC50 of >100 μmol/L.

[4] = system: MOG-induced experimental autoimmune encephalomyelitis mouse model; test: Activity assessment 2 in MOG-induced experimental autoimmune encephalomyelitis mouse model; type: in vivo, C57BL/6J mice; details: 30 mg/kg orally twice daily for 15 days starting 50 days after MOG35-55 inoculation; vs vehicle-dosing group (1.93)
Experimental: as §1, §2
The vertical axis represents neurological score (mean±standard error, n=7 or 8). On the horizontal axis, “Vehicle” represents the vehicle-dosing group, and “Compound of Example 11” represents the compound of Example 11—dosing group, and “Compound of Example 32” represents the compound of Example 32—dosing group, and “Compound of Example 36” represents the compound of Example 36—dosing group.

[5] = evaluation concentration 30 μmol/L
[6] = evaluation concentration 10 μmol/L
[7] = evaluation concentration 50 μmol/L

| Structure (SMILES) | EC50 [3] [µM] | Ferroptosis inhibition rate (%) [1, 5] [%] | further results |
| --- | --- | --- | --- |
| O=C(Cc1ccc2c(c1)CCC(c1ccccc1)N2)N1CC(O)C1 (stereo not shown) [Example 144, 1-(3-hydroxyazetidin-1-yl)-2-(2-phenyl-1,2,3,4-tetrahydroquinolin-6-yl)ethan-1-one hydrochloride] | > 100 | – | Ferroptosis inhibition rate (%) ([1]; evaluation concentration 30 μmol/L, hydrochloride): 96.14%; neurological score reduction rate [2]: 25.0% |
| NS(=O)(=O)c1ccc(C2CCc3ccccc3N2)cc1 (stereo not shown) [Example 32, 4-(1,2,3,4-tetrahydroquinolin-2-yl)benzenesulfonamide] | > 100 | 100.5 | neurological score reduction rate [4]: 55.4% |
| NS(=O)(=O)c1ccc(C2CNc3ccccc3C2)cc1 (stereo not shown) [Example 172, 4-(1,2,3,4-tetrahydroquinolin-3-yl)benzenesulfonamide] | – | 92.87 | neurological score reduction rate [2]: 27.8% |
| NS(=O)(=O)c1ccc(C2CNc3ccccc3C2)cc1 (stereo not shown) [Example 171, 4-(1,2,3,4-tetrahydroquinolin-3-yl)benzenesulfonamide] | – | 90.71 | neurological score reduction rate [2]: 47.2% |
| O=C(Cc1ccc2c(c1)CCC(c1ccccc1)N2)NC1CC1 (stereo not shown) [Example 152, N-cyclopropyl-2-(2-phenyl-1,2,3,4-tetrahydroquinolin-6-yl)acetamide] | > 100 | 108.1 | – |
| NS(=O)(=O)c1ccc(C2CCc3cc(Cl)ccc3N2)cc1 (stereo not shown) [Example 116, 4-(6-chloro-1,2,3,4-tetrahydro-quinolin-2-yl)benzenesulfonamide] | > 100 | – | Ferroptosis inhibition rate (%) [1, 6]: 80.69% |
| NC(=O)c1ccc(C2CCc3ccccc3N2)cc1 (stereo not shown) [Example 36, 4-(1,2,3,4-tetrahydroquinolin-2-yl)benzamide] | > 100 | 98.76 | neurological score reduction rate [4]: 45.1% |
| Clc1ccc2c(c1)CCC(c1ccccc1)N2 (stereo not shown) [Example 83, 6-chloro-2-phenyl-1,2,3,4-tetrahydroquinoline] | > 100 | – | Ferroptosis inhibition rate (%) [1, 7]: 103.8% |
| O=C(Cc1ccc2c(c1)CCC(c1ccccc1)N2)NC1COC1 (stereo not shown) [Example 148, N-(oxetan-3-yl)-2-(2-phenyl-1,2,3,4-tetrahydroquinolin-6-yl)acetamide] | > 100 | 86.55 | – |
| Cc1cccc2c1CCC(c1ccc(S(N)(=O)=O)cc1)N2 (stereo not shown) [Example 112, 4-(5-methyl-1,2,3,4-tetrahydroquinolin-2-yl)benzenesulfonamide] | > 100 | 105.5 | – |
| O=C(Cc1ccc2c(c1)CCC(c1ccccc1)N2)N1CC(F)(F)C1 (stereo not shown) [Example 161, 1-(3,3-difluoroazetidin-1-yl)-2-(2-phenyl-1,2,3,4-tetrahydroquinolin-6-yl)ethan-1-one] | > 100 | – | Ferroptosis inhibition rate (%) [1, 6]: 94.01% |
| Fc1ccc2c(c1)NC(c1ccccc1)CC2 (stereo not shown) [Example 68, 7-fluoro-2-phenyl-1,2,3,4-tetrahydroquinoline] | > 100 | 101.9 | – |
| Cc1ccc2c(c1)CCC(c1ccc(C(N)=O)cc1)N2 (stereo not shown) [Example 99, 4-(6-methyl-1,2,3,4-tetrahydroquinolin-2-yl)benzamide] | > 100 | 98.85 | – |
| c1ccc2c(c1)CCC(c1cn[nH]c1)N2 (stereo not shown) [Example 11, 2-(1H-pyrazol-4-yl)-1,2,3,4-tetrahydroquinoline] | – | – | Ferroptosis inhibition rate (%) [1, 7]: 106.0%; neurological score reduction rate [4]: 54.4% |
| O=C(Cc1ccc2c(c1)CCC(c1ccccc1)N2)N1CC(F)(F)C1 (stereo not shown) [Example 149, 1-(3,3-difluoroazetidin-1-yl)-2-(2-phenyl-1,2,3,4-tetrahydroquinolin-6-yl)ethan-1-one] | > 100 | 99.36 | – |
| Fc1cccc2c1CCC(c1ccccc1)N2 (stereo not shown) [Example 66, 5-fluoro-2-phenyl-1,2,3,4-tetrahydroquinoline] | > 100 | 101.5 | – |
| FC(F)(F)Oc1ccc(C2CCc3ccccc3N2)cc1 (stereo not shown) [Example 31, 2-(4-(trifluoromethoxy)phenyl)-1,2,3,4-tetrahydroquinoline] | > 100 | – | Ferroptosis inhibition rate (%) [1, 7]: 98.99% |
| CC1(C)CN(C(=O)Cc2ccc3c(c2)CCC(c2ccccc2)N3)C1 (stereo not shown) [Example 146, 1-(3,3-dimethylazetidin-1-yl)-2-(2-phenyl-1,2,3,4-tetrahy-dro-quin-olin-6-yl)ethan-1-one] | > 100 | 112.8 | – |
| Cc1ccc2c(c1)NC(c1ccc(C(N)=O)cc1)CC2 (stereo not shown) [Example 106, 4-(7-methyl-1,2,3,4-tetrahydroquinolin-2-yl)benzamide] | > 100 | 111.7 | – |
| O=C1CN(C(=O)Cc2ccc3c(c2)CCC(c2ccccc2)N3)CCN1 (stereo not shown) [Example 157] | > 100 | 69.89 | – |
| NC(=O)c1ccc(C2CCc3cc(Cl)ccc3N2)cc1 (stereo not shown) [Example 122, 4-(6-chloro-1,2,3,4-tetrahydroquinolin-2-yl)benzamide] | > 100 | – | Ferroptosis inhibition rate (%) [1, 6]: 97.59% |
| Clc1cccc2c1CCC(c1ccccc1)N2 (stereo not shown) [Example 67, 5-chloro-2-phenyl-1,2,3,4-tetrahydroquinoline] | > 100 | 102.4 | – |
| NC(=O)c1ccc(C2CCc3ccccc3N2)cc1 (stereo not shown) [Example 37, 4-(1,2,3,4-tetrahydroquinolin-2-yl)benzamide] | > 100 | 98.69 | – |
